Patent US20240287138A1, “CYCLIC PEPTIDES FOR INHIBITING TNF RECEPTOR 1 ACTIVITY” (Merck Sharp & Dohme LLC, priority 2023, published 2024)
pIC50, pKd: −log10 of the molar value. Numbered stars: 1 amine (or outer) side, 2 acyl side, 3 side chain; on linkers, the order of the positions; unused ones are H or OH. Bridge positions count the residues as written; N and C are the ends. Square brackets hold non-standard residues; d marks the D form. Peptide text beside a SMILES is read from it. Trp(βS-Me,7-OMe) = COc1cccc2c([C@H](C)[C@H](N)C(=O)O)c[nH]c12; X24 = O=C(O)c1ccc([C@@H](O)[C@H](N[*:1])C(=O)[*:2])cc1; X28 = NC(=O)c1ccc([C@H](O)[C@H](N[*:1])C(=O)[*:2])cc1; Trp(7-CN) = N#Cc1cccc2c(C[C@H](N)C(=O)O)c[nH]c12; Trp(7-Cl) = N[C@@H](Cc1c[nH]c2c(Cl)cccc12)C(=O)O; X29 = NC(=O)Cc1cccc(C[C@H](N[*:1])C(=O)[*:2])c1; Phe(4-CONH2) = NC(=O)c1ccc(C[C@H](N)C(=O)O)cc1; Phe(4-COOH) = N[C@@H](Cc1ccc(C(=O)O)cc1)C(=O)O; Trp(7-aza) = N[C@@H](Cc1c[nH]c2ncccc12)C(=O)O; dPro(4S-NH2) = N[C@@H]1CN[C@@H](C(=O)O)C1; Pip(5R-OH) = O=C(O)[C@@H]1CC[C@@H](O)CN1; X1 = O=C([C@@H]1CC[C@H](N[*:1])C1)[*:2]; X19 = O=C([C@H](Cc1ccncn1)N[*:1])[*:2]; Gly(N(CH2)3COOH) = O=C(O)CCCNCC(=O)O; Pip(4-aza) = O=C(O)[C@@H]1CNCCN1; 4Pal = N[C@@H](Cc1ccncc1)C(=O)O; NMeE = CN[C@@H](CCC(=O)O)C(=O)O; dHyp = O=C(O)[C@H]1C[C@H](O)CN1; Pip = O=C(O)[C@@H]1CCCCN1; αMeS = C[C@](N)(CO)C(=O)O; Nle = CCCC[C@H](N)C(=O)O; Sar = CNCC(=O)O

Assays:
[1] = molecular target: T1, human TNFR1 extracellular domain (ECD) protein (Homo sapiens, UniProt P19438); assay: SPR binding affinity to captured human TNFR1 ECD
T1 construct: HRV 3C protease cleavage site (C); 6His (C, cleaved yes); made in house; host or cells: Sf21 insect cells (baculovirus), secreted
T1 sequence (P19438 30-211): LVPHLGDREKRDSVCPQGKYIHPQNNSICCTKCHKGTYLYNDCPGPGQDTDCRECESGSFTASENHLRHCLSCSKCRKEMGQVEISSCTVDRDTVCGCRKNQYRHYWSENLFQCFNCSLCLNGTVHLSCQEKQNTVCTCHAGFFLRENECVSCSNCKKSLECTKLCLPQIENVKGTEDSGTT
Summary of the method: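 Biotinylated avi-tagged human TNFR1 or TNFR2 ECD, expressed in Sf21 insect cells, captured on streptavidin SPR chip; peptide analytes run in 10 mM HEPES pH 7.4, 150 mM NaCl, 3 mM EDTA, 0.05% P20, 2% DMSO. kon and koff measured, affinity KA calculated.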

[2] = molecular target: T2, TNFα-induced NF-κB signal transduction pathway (TNFR1 signaling) in THP-1 cells (Homo sapiens, UniProt P19438); assay: THP-1 Lucia NF-κB reporter cell assay, inhibition of TNFα-induced NF-κB signaling; format: cell-based; conditions: THP-1 NF-κB Lucia reporter cells, 10 ng/mL TNFα, 16-18 h, secreted luciferase; read-out: THP-1 IC50
T2 sequence (P19438 30-455): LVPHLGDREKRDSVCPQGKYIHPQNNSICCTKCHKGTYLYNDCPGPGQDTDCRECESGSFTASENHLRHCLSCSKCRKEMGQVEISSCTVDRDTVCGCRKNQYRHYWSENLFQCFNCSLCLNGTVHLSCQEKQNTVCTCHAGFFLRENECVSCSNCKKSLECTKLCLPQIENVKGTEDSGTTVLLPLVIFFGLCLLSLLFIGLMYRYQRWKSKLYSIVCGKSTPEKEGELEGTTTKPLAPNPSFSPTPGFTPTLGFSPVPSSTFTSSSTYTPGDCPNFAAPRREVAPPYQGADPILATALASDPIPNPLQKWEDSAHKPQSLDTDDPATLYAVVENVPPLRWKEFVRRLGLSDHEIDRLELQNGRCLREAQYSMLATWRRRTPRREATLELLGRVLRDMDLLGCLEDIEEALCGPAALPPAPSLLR
Summary of the method: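 IC50 from a 4-parameter logistic fit of secreted luciferase luminescence (QUANTI-Luc), normalised to min/max controls. Reporter THP-1 cells were exposed to peptides for 1 h at 37 °C before 10 ng/mL TNFα (final) was added overnight (16–18 h).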

Row | SMILES | pKd [1] | pIC50 [2]
1 | CCCC[C@@H]1NC(=O)[C@@H]2CC[C@@H](C2)NC(=O)[C@H]([C@@H](C)c2c[nH]c3c(OC)cccc23)NC(=O)CN(C)C(=O)[C@H](Cc2cccc(CC(N)=O)c2)NC(=O)[C@H](Cc2ccc(C(=O)O)cc2)NC(=O)[C@](C)(CO)NC(=O)[C@H](Cc2c[nH]c3c(Cl)cccc23)NC(=O)[C@H](Cc2ccncc2)NC(=O)[C@H](CC(N)=O)NC(=O)[C@H](CCC(=O)O)N(C)C(=O)[C@H](Cc2c[nH]c3ccccc23)NC(=O)[C@@H]2CNCCN2C(=O)[C@H](Cc2ccncc2)NC1=O [SEQ ID NO. 153] (cyclo([4Pal][Trp(7-Cl)][αMeS][Phe(4-COOH)][X29][Sar][Trp(βS-Me,7-OMe)][X1][Nle][4Pal][Pip(4-aza)]W[NMeE]N)) | 9.80 | 8.59
2 | CCCC[C@@H]1NC(=O)[C@@H]2CC[C@@H](C2)NC(=O)[C@H]([C@@H](C)c2c[nH]c3c(OC)cccc23)NC(=O)CN(C)C(=O)[C@H]([C@H](O)c2ccc(C(=O)O)cc2)NC(=O)[C@H]([C@@H](O)c2ccc(C(N)=O)cc2)NC(=O)[C@](C)(CO)NC(=O)[C@H](Cc2c[nH]c3c(C#N)cccc23)NC(=O)[C@H](Cc2ccncc2)NC(=O)[C@H](CC(N)=O)NC(=O)[C@H]2C[C@H](O)CN2C(=O)[C@H](Cc2c[nH]c3ccccc23)NC(=O)[C@@H]2CC[C@@H](O)CN2C(=O)[C@H](Cc2ccncc2)NC1=O [SEQ ID NO. 155] (cyclo([4Pal][Trp(7-CN)][αMeS][X28][X24][Sar][Trp(βS-Me,7-OMe)][X1][Nle][4Pal][Pip(5R-OH)]W[dHyp]N)) | 10.70 | 9.05
3 | CCCC[C@@H]1NC(=O)CSC[C@@H](C(N)=O)NC(=O)[C@H]([C@@H](C)c2c[nH]c3c(OC)cccc23)NC(=O)CN(C)C(=O)[C@H](Cc2ccc(O)cc2)NC(=O)[C@H](Cc2ccc(C(=O)O)cc2)NC(=O)[C@](C)(CO)NC(=O)[C@H](Cc2c[nH]c3c(Cl)cccc23)NC(=O)[C@H](Cc2ccncc2)NC(=O)[C@H](CC(N)=O)NC(=O)CN(CCCC(=O)O)C(=O)[C@H](Cc2c[nH]c3ncccc23)NC(=O)[C@@H]2CCCCN2C(=O)[C@H](Cc2ccncc2)NC1=O [SEQ ID NO. 157] ({CH2CO}-[Nle][4Pal][Pip][Trp(7-aza)][Gly(N(CH2)3COOH)]N[4Pal][Trp(7-Cl)][αMeS][Phe(4-COOH)]Y[Sar][Trp(βS-Me,7-OMe)]C-NH2; thioether N-14) | 9.30 | 8.40
4 | CCCC[C@@H]1NC(=O)[C@@H]2CC[C@@H](C2)NC(=O)[C@H]([C@@H](C)c2c[nH]c3c(OC)cccc23)NC(=O)CN(C)C(=O)[C@H](Cc2ccc(C(=O)O)cc2)NC(=O)[C@H](Cc2ccc(C(N)=O)cc2)NC(=O)[C@](C)(CO)NC(=O)[C@H](Cc2c[nH]c3c(Cl)cccc23)NC(=O)[C@H](Cc2ccncn2)NC(=O)[C@H](CC(N)=O)NC(=O)[C@H]2C[C@H](O)CN2C(=O)[C@H](Cc2c[nH]c3ncccc23)NC(=O)[C@@H]2CC[C@@H](O)CN2C(=O)[C@H](Cc2ccncc2)NC1=O [SEQ ID NO. 159] (cyclo([4Pal][Pip(5R-OH)][Trp(7-aza)][dHyp]N[X19][Trp(7-Cl)][αMeS][Phe(4-CONH2)][Phe(4-COOH)][Sar][Trp(βS-Me,7-OMe)][X1][Nle])) | 10.30 | 9.10
5 | CCCC[C@@H]1NC(=O)[C@@H]2CC[C@@H](C2)NC(=O)[C@H]([C@@H](C)c2c[nH]c3c(OC)cccc23)NC(=O)CN(C)C(=O)[C@H](Cc2ccc(O)cc2)NC(=O)[C@H](Cc2ccc(C(=O)O)cc2)NC(=O)[C@](C)(CO)NC(=O)[C@H](Cc2c[nH]c3c(Cl)cccc23)NC(=O)[C@H](Cc2ccncc2)NC(=O)[C@H](CC(N)=O)NC(=O)[C@H]2C[C@H](N)CN2C(=O)[C@H](Cc2c[nH]c3ccccc23)NC(=O)[C@@H]2CNCCN2C(=O)[C@H](Cc2ccncc2)NC1=O [SEQ ID NO. 161] (cyclo([4Pal][Trp(7-Cl)][αMeS][Phe(4-COOH)]Y[Sar][Trp(βS-Me,7-OMe)][X1][Nle][4Pal][Pip(4-aza)]W[dPro(4S-NH2)]N)) | 10.70 | 8.89
6 | CCCC[C@@H]1NC(=O)[C@@H]2CC[C@@H](C2)NC(=O)[C@H]([C@@H](C)c2c[nH]c3c(OC)cccc23)NC(=O)CN(C)C(=O)[C@H](Cc2ccc(O)cc2)NC(=O)[C@H](Cc2ccc(C(N)=O)cc2)NC(=O)[C@](C)(CO)NC(=O)[C@H](Cc2c[nH]c3c(Cl)cccc23)NC(=O)[C@H](Cc2ccncc2)NC(=O)[C@H](CC(N)=O)NC(=O)[C@H](CCC(=O)O)N(C)C(=O)[C@H](Cc2c[nH]c3ccccc23)NC(=O)[C@@H]2CC[C@@H](O)CN2C(=O)[C@H](Cc2ccncc2)NC1=O [SEQ ID NO. 163] (cyclo([4Pal][Trp(7-Cl)][αMeS][Phe(4-CONH2)]Y[Sar][Trp(βS-Me,7-OMe)][X1][Nle][4Pal][Pip(5R-OH)]W[NMeE]N)) | 10.30 | 9.15
